One may read the GI50 as the concentration at which growth is held to half of that of the control. High values mean less potent growth inhibition, low ones more potent growth inhibition.

SMILES strings stand for the structures.

This assay is described as follows: Effect on proliferation of cells, Cell Titer-Glo, 72 hours. The format is cell-based. The conditions noted are these: Mus musculus, BaF3 cells. Summed up: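 Cells were incubated 72 h with ten compound concentrations from 0.000508 μM to 10 μM. Viable cell number was measured by ATP quantification with Cell Titer-Glo, and GI50 values were determined.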
On the technique in general: Cellular ATP, detected with luciferase, serves as a proxy for viable cell number.

Take `Cc1ccc(NC(=O)c2cccc(C(F)(F)F)c2)cc1-n1cc(-c2cncc(N3CCOCC3)c2)cn1` [Example 16, N-(4-methyl-3-(4-(5-morpholinopyrid-3-yl)-1H-pyrazol-1-yl)phenyl)-3-(trifluoromethyl)benzamide]: the concentration for 50% growth inhibition (GI50) was over 10 µM. Under `Cc1ccc(NC(=O)c2cccc(C(F)(F)F)c2)cc1-n1cc(-c2cccnc2)cn1` [compound 1, 3-trifluoromethyl-N-(4-methyl-3-(4-(pyrid-3-yl)-1H-pyrazol-1-yl)phenyl)benzamide, reference compound] stands 3.3 µM.

Source of the values: patent publication US12115152B2, “Pan-RAF kinase inhibitor and use thereof” (HEFEI INSTITUTES OF PHYSICAL SCIENCE, CHINESE ACADEMY OF …, priority 2019, dated 2024).
